A short description of this data set: Human HepG2 cell viability assay in 384 well format. More on the design: dose 125 nL, time 70.5 hour; cytotoxicity at 70.5 h: concentration not given beside the values. The settings on record: HepG2 cells, read-out: Inhibition. The format is toxicity, cell-based.

On to `C1CN(CCN2CCOCC2)CCN1`, for which the cytotoxicity at 70.5 h was -0.136%.
For the compound `CSCCC(=O)N[C@H]1CC[C@H](Nc2nccc(-c3ccncc3)n2)C1`, the cytotoxicity at 70.5 h was found to be 23.8%.
Turning to `CCc1csc(CNc2nc3c(s2)c(C)nn3C)n1`, the cytotoxicity at 70.5 h stood at 10.5%.
The same measure for `Cc1cc(N2CCC(O)(C(=O)O)CC2)nc2ccccc12`: -11%.
Turning to `CCC(CO)N(Cc1cccs1)C(=O)CSC` (stereo not given), the cytotoxicity at 70.5 h turned out to be 11.9%.
Take `Cc1nccc(N[C@H]2CN(C(=O)CN3CCCC3=O)C[C@@H]2C(C)C)n1`: the cytotoxicity at 70.5 h is -19.5%.
For `CCCn1ncc(CN2CCCC(C(=O)c3ccc(SC)cc3)C2)c1C` (stereo not given), the cytotoxicity at 70.5 h was -9.31%.
For `CN(Cc1ccno1)C(=O)c1cccc(CC2CCNCC2)c1`, the cytotoxicity at 70.5 h was 6.56%.
In the case of `CCN1CCCC1CNC(=O)c1cc(COc2ccccc2F)[nH]n1` (stereo not given), the cytotoxicity at 70.5 h is -4.57%.
As for `Cc1cc(C)c2c(N3CCC(C(=O)N4CCCC4)CC3)ncnc2n1`, the figure is -7.41%.
Regarding `CC(C)N1CC2(CCCN(Cc3noc(C4CCCC4)n3)C2)CCC1=O` (stereo not given), the cytotoxicity at 70.5 h amounted to 3.06%.
With `CCc1cc(C(=O)N2CCC3(CCCN(CCOC)C3=O)C2)cs1` (stereo not given), the cytotoxicity at 70.5 h is -9.21%.
Turning to `CCN1CC2(CCC1=O)CCN(Cc1nncn1C(C)C)CC2`, the cytotoxicity at 70.5 h is -5.12%.
For the compound `CCCOCC(=O)N1CCc2c(cccc2S(=O)(=O)N2CCOCC2)C1`, the cytotoxicity at 70.5 h stood at 19.4%.
For the compound `Cc1nccc(-c2ccccc2)c1C(=O)N1CCC2(CN(C)C(=O)O2)C1` (stereo not given), the cytotoxicity at 70.5 h was -5.07%.
Consider `CCc1ncc(C(=O)N2CC(Oc3ccccc3Cl)C2)cn1`, for which the cytotoxicity at 70.5 h was 10.7%.
As for `O=C(Cc1ccncc1)N1C[C@H]2CC[C@@H]1CN(Cc1cccnc1)C2`, the figure is 8.28%.
As to `CCC(C(=O)NCc1nc(C)cc(C(F)(F)F)n1)n1cccn1` (stereo not given), the cytotoxicity at 70.5 h was -11.3%.
In the case of `COc1cccc(-c2n[nH]c3c2CN(C(=O)c2cccc(=O)[nH]2)CC3)c1`, the cytotoxicity at 70.5 h is -6.52%.
As to `CCN(CC1CCCN(CCc2cccc(OC)c2)C1)C(=O)CO` (stereo not given), the cytotoxicity at 70.5 h was -0.648%.
As for `CN1CCN(C[C@@H]2CN(C(=O)NCC3CCCCC3)C[C@@H]2CO)CC1`, the cytotoxicity at 70.5 h was 27.6%.
On to `CCC1(C(=O)O)CCCN(C(=O)c2ccc(N3CCN(C)CC3)cc2)C1` (stereo not given), for which the cytotoxicity at 70.5 h was found to be 21.4%.
Regarding `CCCc1cc(C(=O)N2C[C@H]3CCC[C@@]3(CO)C2)[nH]n1`, the cytotoxicity at 70.5 h was -7.84%.
The same measure for `CC(C)Cc1cc(-c2cc(-c3ccc[nH]3)nc(N)c2C#N)n[nH]1`: 21.1%.
For the compound `CCCSCC(=O)N1C[C@@H](NC(C)=O)[C@H](c2ccc(OC)cc2)C1`, the cytotoxicity at 70.5 h is -19.4%.
For `O[C@H]1[C@H](n2cc(-c3cncnc3)nn2)c2ccccc2C12CCNCC2`, the cytotoxicity at 70.5 h was -5.02%.
For `CC(C)=CCN1C[C@H]2CC[C@@H]1CN(CCC(=O)NCc1ccco1)C2`, the cytotoxicity at 70.5 h worked out at 30.2%.
The same measure for `c1ccc(C2CCCN2C2CSCCSC2)nc1` (stereo not given): -4.87%; for `CCC(CO)N(Cc1ccco1)C(=O)c1cccnc1NC` (stereo not given): -2.71%; for `CCSCCC(=O)NCc1cc2n(n1)CCN(C(=O)N(C)C)C2`: -6.68%.
For the compound `CC(=O)c1ccc(N2CCC(CO)(CCOc3ccccc3)CC2)nc1`, the cytotoxicity at 70.5 h is -11%.
With `Cc1nccnc1N1CC[C@@H](NC(=O)c2cnccn2)[C@H](O)C1`, the cytotoxicity at 70.5 h was -8.55%.
Take `COc1ccc(OCc2nc(C(=O)N3CC[C@H](O)[C@@H](O)C3)co2)cc1`: the cytotoxicity at 70.5 h is -8.88%.
Consider `Cc1nc(N2CC[C@@H](NC(=O)c3cnccn3)[C@H](O)C2)c2ccsc2n1`, for which the cytotoxicity at 70.5 h was -3.33%.
As for `COC(=O)CCC(=O)N1CCc2[nH]nc(-c3ccc(F)c(F)c3)c2C1`, the figure is -8.06%; as for `COCCn1ccnc1C1CCCN(C(=O)CSCC2CC2)C1` (stereo not given), -3.02%.
As for `Cc1ccc([C@@H]2CN(S(=O)(=O)c3cccs3)C[C@H]2N(C)C)cc1`, the cytotoxicity at 70.5 h is -2.64%.
As to `CN1CCN(C[C@@H]2CN(C(=O)c3ccccc3C#N)C[C@@H]2CO)CC1`, the cytotoxicity at 70.5 h was 13.9%.
Turning to `CC(C)C(=O)NCC(=O)N(C)C1CCCN(CCc2ccccc2)C1` (stereo not given), the cytotoxicity at 70.5 h is -5.89%.
For `CC(=O)c1cc(CN2C[C@H]3CC[C@@H]2CN(S(=O)(=O)N(C)C)C3)cs1`, the cytotoxicity at 70.5 h was found to be 12.5%.
On to `Cc1cc(CN2CCN(C(=O)C(C)C)[C@@H]3CS(=O)(=O)C[C@@H]32)ccc1F`, for which the cytotoxicity at 70.5 h was -2.32%.
On to `Cc1cc(CC(=O)N2CCCC2c2nc(C(C)C)no2)on1` (stereo not given), for which the cytotoxicity at 70.5 h came out at 5.26%.
For the compound `CCOCC(=O)N1C[C@@H](NC(C)=O)[C@H](c2ccc(OC)cc2)C1`, the cytotoxicity at 70.5 h is -8.31%.
`CCC(O)CNC(=O)c1coc(COc2ccc3sc(C)nc3c2)n1` (stereo not given): the cytotoxicity at 70.5 h was determined as 12.2%.
As for `Cc1cc(N(C)Cc2cc(C)on2)n2nc(C)c(C)c2n1`, the cytotoxicity at 70.5 h is -5.61%.
As for `O=C(CCN1CCCC1=O)NCc1cccnc1Oc1ccccc1`, the cytotoxicity at 70.5 h is -3.36%.
In the case of `Cc1nsc(NC(=O)N2CCN(Cc3ccc(F)cc3)C(=O)C2)n1`, the cytotoxicity at 70.5 h was -13.5%.
The same measure for `COCCNc1nc(C2CCCC2)nc2c1CCNCC2`: 2.05%; for `CC(C)C(=O)NCCNc1nccc(-c2cc(C(=O)O)ccn2)n1`: -0.446%.
Take `CCNC(=O)N1CCN(Cc2nc3ccccc3[nH]2)[C@@H]2CS(=O)(=O)C[C@@H]21`: the cytotoxicity at 70.5 h is -9.34%.
As to `N#Cc1c(SCCN2CCCCC2)sc2c(O)cc(O)nc12`, the cytotoxicity at 70.5 h turned out to be 17.9%.
On to `CCc1nc(-c2cccc(C(=O)O)c2)no1`, for which the cytotoxicity at 70.5 h came out at 16.3%.
As for `CSCCC(NC(=O)c1nc(SC)ncc1Cl)C(=O)O` (stereo not given), the figure is -0.19%.
On to `Cc1cc(C)n(C(=O)Cn2nc(C)c(I)c2C)n1`, for which the cytotoxicity at 70.5 h was -7.22%.
The same measure for `CC1=C(C#N)C(=O)NC(=O)/C1=C\c1c(C)nn(-c2ccc(C)cc2)c1O`: -2.65%.
Take `CCn1nc2nc(SCC(=O)O)cc(C(F)F)c2c1C`: the cytotoxicity at 70.5 h was -5.31%.
On to `CCn1cc(N)c(-c2nnc3n2CCCC3)n1`, for which the cytotoxicity at 70.5 h was -2.65%.
For the compound `Cn1nccc1CNC(=O)CCn1nc(C(F)(F)F)cc1C1CC1`, the cytotoxicity at 70.5 h was -4.88%.
Turning to `Cn1nccc1CNC(=O)CCn1nc(C(F)(F)F)c(Cl)c1C1CC1`, the cytotoxicity at 70.5 h is -3.15%.
With `Cc1cc(C)n(NC(=O)c2ccccc2C)c(=O)c1`, the cytotoxicity at 70.5 h is -3.12%.
Take `Cn1ncc(NC(=O)c2noc3c2CCCC3)c1C(=O)N1CCCCC1`: the cytotoxicity at 70.5 h is -6.23%.
On to `COc1ccc(N(c2ccccc2)c2ccc(C(=O)O)s2)cc1`, for which the cytotoxicity at 70.5 h was -0.368%.
Consider `O=C1CCC(=O)N1c1nn(Cc2c(F)cccc2Cl)cc1Cl`, for which the cytotoxicity at 70.5 h worked out at 6.93%.
For the compound `CCn1ncc(-c2cc(C(F)F)n3nc(CCC(=O)O)nc3n2)c1C`, the cytotoxicity at 70.5 h is -1.79%.
`CCN(CC)C(=O)c1c(Cl)cnn1CC`: the cytotoxicity at 70.5 h is -0.536%.
For `NC1C=C(C(F)(F)F)NC=C1c1ccccc1` (stereo not given), the cytotoxicity at 70.5 h is -0.126%.
As to `CC(C)c1ccc(-c2nonc2N)cc1`, the cytotoxicity at 70.5 h was 1.97%.
The same measure for `CC(C)c1cc(CN2CCC(N)CC2)on1`: 19.4%; for `CC(C)c1cc(CN2CCC(CC(=O)O)CC2)no1`: -2.18%; for `CCN(CC)C(=O)c1c(Br)cnn1CC`: -2.09%.

Source of the values: ChEMBL document CHEMBL3507680, “University of Dundee, Gates Library screen for HepG2 cell viability”.
